Experimental data published in PubChem BioAssay (NCI).
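A five-concentration, 48-hour dose response in 96-well plates underlies each endpoint, interpolated linearly between surrounding concentrations. GI50 = concentration required for 50% inhibition of growth. TGI denotes the concentration required for complete inhibition of growth.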

Tests used:
Experiment in all cases: growth of human tumour cells (NCI), 48 h; in the data active = GI50 below about 0.43 µM; inactive = the rest
[1] = system: 786-0 renal
[2] = system: A498 renal
[3] = system: A549 NSCLC
[4] = system: ACHN renal
[5] = system: BT-549 breast
[6] = system: CAKI-1 renal
[7] = system: CCRF-CEM leukemia
[8] = system: COLO 205 colon
[9] = system: DU-145 prostate
[10] = system: HCC-2998 colon
[11] = system: HCT-116 colon
[12] = system: HCT-15 colon
[13] = system: HL-60(TB) leukemia
[14] = system: HOP-62 NSCLC
[15] = system: HOP-92 NSCLC
[16] = system: HS 578T breast
[17] = system: HT29 colon
[18] = system: IGROV1 ovarian
[19] = system: K-562 leukemia
[20] = system: KM12 colon
[21] = system: LOX IMVI melanoma
[22] = system: M14 melanoma
[23] = system: MALME-3M melanoma
[24] = system: MCF7 breast
[25] = system: MDA-MB-231 breast
[26] = system: MDA-MB-435
[27] = system: MOLT-4 leukemia
[28] = system: NCI-H226 lung
[29] = system: NCI-H23 lung
[30] = system: NCI-H460 lung
[31] = system: NCI-H522 lung
[32] = system: NCI/ADR-RES ovarian
[33] = system: OVCAR-3 ovarian
[34] = system: OVCAR-4 ovarian
[35] = system: OVCAR-5 ovarian
[36] = system: OVCAR-8 ovarian
[37] = system: PC-3 prostate
[38] = system: RPMI-8226 leukemia
[39] = system: RXF 393 renal
[40] = system: SF-268 CNS
[41] = system: SF-295 CNS
[42] = system: SK-MEL-2 melanoma
[43] = system: SK-MEL-28 melanoma
[44] = system: SK-MEL-5 melanoma
[45] = system: SK-OV-3 ovarian
[46] = system: SN12C renal
[47] = system: SNB-19 CNS
[48] = system: SNB-75 CNS
[49] = system: SR leukemia
[50] = system: SW-620 colon
[51] = system: T-47D breast
[52] = system: TK-10 renal
[53] = system: U251 CNS
[54] = system: UACC-257 melanoma
[55] = system: UACC-62 melanoma
[56] = system: UO-31 renal

CCCCCCCCCCCCCCNc1nc(C(=O)OCC)ncc1-c1ccc(C(F)(F)F)cc1
inactive: GI50 [1] > 100 µM | GI50 [2] > 100 µM | GI50 [3] > 100 µM | GI50 [4] > 100 µM | GI50 [5] > 100 µM | GI50 [6] > 100 µM | GI50 [7] > 100 µM | GI50 [8] > 100 µM | GI50 [9] > 100 µM | GI50 [10] > 100 µM | GI50 [11] > 100 µM | GI50 [12] > 100 µM | GI50 [13] > 100 µM | GI50 [14] > 100 µM | GI50 [15] > 100 µM | GI50 [16] > 100 µM | GI50 [17] > 100 µM | GI50 [18] > 100 µM | GI50 [19] > 100 µM | GI50 [20] > 100 µM | GI50 [21] > 100 µM | GI50 [22] > 100 µM | GI50 [23] > 100 µM | GI50 [24] > 100 µM | GI50 [25] > 100 µM | GI50 [26] > 100 µM | GI50 [27] > 100 µM | GI50 [28] > 100 µM | GI50 [29] > 100 µM | GI50 [30] > 100 µM | GI50 [31] > 100 µM | GI50 [32] > 100 µM | GI50 [33] > 100 µM | GI50 [34] 48.1 µM | GI50 [35] > 100 µM | GI50 [36] > 100 µM | GI50 [37] 27.5 µM | GI50 [38] > 100 µM | GI50 [39] > 100 µM | GI50 [40] > 100 µM | GI50 [41] > 100 µM | GI50 [42] > 100 µM | GI50 [43] > 100 µM | GI50 [44] > 100 µM | GI50 [45] > 100 µM | GI50 [46] > 100 µM | GI50 [47] > 100 µM | GI50 [48] > 100 µM | GI50 [49] > 100 µM | GI50 [50] > 100 µM | GI50 [51] > 100 µM | GI50 [52] > 100 µM | GI50 [53] > 100 µM | GI50 [54] > 100 µM | GI50 [55] > 100 µM | GI50 [56] > 100 µM
> 100 µM: TGI [1] | TGI [2] | TGI [3] | TGI [4] | TGI [5] | TGI [6] | TGI [7] | TGI [8] | TGI [9] | TGI [10] | TGI [11] | TGI [12] | TGI [13] | TGI [14] | TGI [15] | TGI [16] | TGI [17] | TGI [18] | TGI [19] | TGI [20] | TGI [21] | TGI [22] | TGI [23] | TGI [24] | TGI [25] | TGI [26] | TGI [27] | TGI [28] | TGI [29] | TGI [30] | TGI [31] | TGI [32] | TGI [33] | TGI [34] | TGI [35] | TGI [36] | TGI [37] | TGI [38] | TGI [39] | TGI [40] | TGI [41] | TGI [42] | TGI [43] | TGI [44] | TGI [45] | TGI [46] | TGI [47] | TGI [48] | TGI [49] | TGI [50] | TGI [51] | TGI [52] | TGI [53] | TGI [54] | TGI [55] | TGI [56]
